According to patent publication US20020051828A1, “Mixtures which can be isolated from eugenia jambolana lamarck seeds, their preparation and the use of these mixtures and some of their constituents as medicaments” (priority 1996, published 2002):

Tests used:
[1] = system: normal mice with post-prandial hyperglycaemia; assay: glycaemia of normal mice with post-prandial hyperglycaemia; format: in vivo, Swiss albino mice; conditions: 0.5 mg/mouse by gastric intubation; for GLYCAEMIA AT T0: T0, before administration; for GLYCAEMIA AT T60: T60, one hour after administration; for % inhibition: glycaemia T60 versus T0
Description: (§1) The hypoglycaemic activity of the mixtures I and II, of sodium oxamate and of the compounds of formula (I) have been determined in mice made diabetic with streptozocin and in normal mice with post-prandial hyperglycaemia according to the following procedures:
II—Normal Mice with Post-prandial Hyperglycaemia
Swiss albino mice weighing between 22 and 25 g are made to have post-prandial hyperglycaemia by the following procedure:
food in excess for 1 hour
The glycaemia is measured at the end of the last two hours of fasting, which constitutes the glycaemia at time T0. The mice are then divided into homogeneous batches according to the measured glycaemias. The products to be evaluated are administered without delay by gastric intubation in 0.4 ml of distilled water. The control batch receives the excipient (0.4 ml of distilled water). After one hour, the final glycaemias are measured which constitute the glycaemia at time T60.

[2] = oral toxicity (LD50) in mice; conditions: mouse, in vivo, orally in mice
Description: The mixtures according to the invention, the sodium oxamate and the compounds of formula (I) have a low toxicity. Their LD50 is greater than 2000 mg/kg orally in mice.

[3] = system: mice made diabetic with streptozotocin; assay: glycaemia of mice made diabetic with streptozotocin; format: in vivo, Swiss albino mice; conditions: for GLYCAEMIA AT D5 / % change in glycaemia: 0.5 mg/mouse/day by gastric intubation for 4 days; for GLYCAEMIA AT D5: D5, after 4 h fasting; for % change in glycaemia: glycaemia D5 versus D1; for GLYCAEMIA AT D1: 0.5 mg/mouse/day by gastric intubation, D1, start of treatment, after 4 h fasting
Description: as §1
I—Mice Made Diabetic with Streptozotocin
Swiss albino mice weighing between 22 and 25 g are made diabetic with streptozotocin administered by intraperitoneal injection at a dose of 210 or 265 mg/Kg of mouse, diluted in a citrate buffer at a concentration such that each mouse receives 0.2 ml of the solution on day 1 (D1). 3 to 4 days later, a check is made on 2 to 3 mice to see if the diabetes is established (glycaemia greater than 7.2 mmol/liter (130 mg per 100 ml). The glycaemia is then measured after starving for 4 hours. If the mice have become diabetic, they are divided into batches of 5 to 7 mice. Each of the batches receives, from D1 and daily, a selected dose of product. The administration is made once a day and at a fixed time, by gastric intubation and in a volume of 0.4 ml of distilled water as vehicle. Two batches of controls are made up:
one batch of untreated diabetic mice
These two batches of controls receive 0.4 ml of vehicle by gastric intubation and simultaneously with the treated mice.
The treatment lasts for 4 days. On the 5th day (D5), there is no administration of product. After fasting for 4 hours, the final glycaemias are measured.

Row | Compound | GLYCAEMIA AT T0 [1] | GLYCAEMIA AT T60 [1] | % inhibition [1] | LD50 [2] | GLYCAEMIA AT D5 [3] | % change in glycaemia [3] | GLYCAEMIA AT D1 [3]
1 | OCC(O)C(O)C(O)c1cnc(C(O)C(O)C(O)CO)cn1 (stereo not shown) [2,5-di(tetrahydroxybutyl)pyrazine, 2,5-di-(tetrahydroxybutyl)pyrazine] | 136.25 mg/100 ml | 102.41 mg/100 ml | −24.83% | – | – | – | –
2 | NC(=O)C(=O)[O-].[Na+] [Sodium oxamate, sodium oxamate] | 136.46 mg/100 ml | 102.93 mg/100 ml | −24.57% | > 2000 mg/kg | 89.90 mg/100 ml | −41.46% | 153.40 mg/100 ml
3 | OCC(O)C(O)Cc1cnc(C(O)C(O)C(O)CO)cn1 (stereo not shown) [2-(tetrahydroxybutyl)-5-(2′,3′,4′-trihydroxybutyl)pyrazine] | 128.75 mg/100 ml | 90.50 mg/100 ml | −29.70% | – | 164.50 mg/100 ml | −45.93% | 304.25 mg/100 ml
